{
  "source": "patent US20180311342A1",
  "about": "“IMMUNOSTIMULATING AGENT” (AJINOMOTO CO., INC., priority 2017, published 2018)",
  "type_in_all_cases": "in vivo, BALB/c mice",
  "key": {"[1]": {"tested_on": "anti-OVA-specific IgG1 and IgG2a subclass antibody production", "test": "Evaluation test of adjuvant activity (overall conclusion from anti-OVA IgG1 and IgG2a production)", "how_it_was_run": "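Female BALB/c mice (8 weeks, N=6) immunized dorsal-subcutaneously with OVA 5 μg alone or plus 0.256 μmol compound in 5% α-cyclodextrin saline (Addavax™ as positive control), boosted at 2 weeks. Serum taken 2 weeks after boost; anti-OVA IgG1 and IgG2a quantified by OVA-coated ELISA against standard curves (OD 450 nm).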"}, "[2]": {"tested_on": "anti-OVA-specific IgG1 subclass antibody", "test": "Adjuvant activity test: anti-OVA-specific IgG1 subclass antibody in serum of OVA-immunized mice (ELISA)", "conditions": "dorsal-subcutaneous, compared to OVA single administration group"}, "[3]": {"tested_on": "anti-OVA-specific IgG2a subclass antibody", "test": "Adjuvant activity test: anti-OVA-specific IgG2a subclass antibody in serum of OVA-immunized mice (ELISA)", "conditions": "dorsal-subcutaneous, compared to OVA single administration group"}, "[4]": {"conditions": "conclusion from IgG1/IgG2a after primary immunization, compound 0.256 μmol in 5% αCD-added saline with OVA 5 μg, dorsal-subcutaneous"}, "[5]": {"conditions": "conclusion from IgG1/IgG2a after secondary immunization, compound 0.256 μmol in 5% αCD-added saline with OVA 5 μg, dorsal-subcutaneous"}, "[6]": {"conditions": "after primary immunization, serum 2 weeks later, OVA 5 μg + compound 0.256 μmol in 5% αCD-added saline (Addavax mixed with saline at 1:1)"}, "[7]": {"conditions": "Experimental Example 4: after secondary immunization, OVA 5 μg + compound 0.256 μmol dissolved in saline (no αCD)"}},
  "note": "Where a name gives a salt, the structure may show the parent alone.",
  "data": [
    {"smiles": "CCCCCCCCCCCCCCCCNC(=O)N[C@@H](CCCCN)C(=O)NCCCCCCCC.Cl", "note": "[SZ213, (2S)-6-amino-2-(hexadecylcarbamoylamino)-N-octyl-hexanamide hydrochloride]", "values": [
      {"measurement": "adjuvant activity", "setting": "[1]; [4]", "result": "have an adjuvant activity"},
      {"measurement": "adjuvant activity", "setting": "[1]; [5]", "result": "have an adjuvant activity"},
      {"measurement": "anti-OVA-specific IgG1 subclass antibody production", "setting": "[2]; [6]", "result": "a tendency toward increase"},
      {"measurement": "anti-OVA-specific IgG2a subclass antibody production", "setting": "[3]; [6]", "result": "significant enhancement"}
    ]},
    {"smiles": "CCCCCCCCCCCCNC(=O)[C@H](CCCNC(=N)N)N(CCCCCCC)CCCCCCC", "note": "[SZ207, (2S)-2-(diheptylamino)-N-dodecyl-5-guanidino-pentanamide dihydrochloride]", "values": [
      {"measurement": "adjuvant activity", "setting": "[1]; [4]", "result": "have an adjuvant activity"},
      {"measurement": "adjuvant activity", "setting": "[1]; [5]", "result": "have an adjuvant activity"},
      {"measurement": "anti-OVA-specific IgG1 subclass antibody production", "setting": "[2]; [6]", "result": "tended to increase"},
      {"measurement": "anti-OVA-specific IgG2a subclass antibody production", "setting": "[3]; [6]", "result": "tended to increase"}
    ]},
    {"smiles": "CCCCCCCCCCCCCCCCNC(=O)N[C@H](CCCNC(=N)N)C(=O)NCCCCCCCCCCCC.Cl", "note": "[SZ193, (2R)—N-dodecyl-5-guanidino-2-(hexadecylcarbamoylamino)pentanamide hydrochloride]", "values": [
      {"measurement": "adjuvant activity", "setting": "[1]; [4]", "result": "have an adjuvant activity"},
      {"measurement": "adjuvant activity", "setting": "[1]; [5]", "result": "have an adjuvant activity"},
      {"measurement": "anti-OVA-specific IgG1 subclass antibody production", "setting": "[2]; [6]", "result": "significant enhancement"},
      {"measurement": "anti-OVA-specific IgG2a subclass antibody production", "setting": "[3]; [6]", "result": "significant enhancement"}
    ]},
    {"smiles": "CCCCCCCCCCCCCCCCOC(=O)N[C@@H](CCCNC(=N)N)C(=O)NCCCCCCCC.Cl", "note": "[SZ215, hexadecyl N-[(1S)-4-guanidino-1-(octylcarbamoyl)butyl]carbamate hydrochloride]", "values": [
      {"measurement": "adjuvant activity", "setting": "[1]; [4]", "result": "have an adjuvant activity"},
      {"measurement": "adjuvant activity", "setting": "[1]; [5]", "result": "have an adjuvant activity"},
      {"measurement": "anti-OVA-specific IgG1 subclass antibody production", "setting": "[2]; [6]", "result": "a tendency toward increase"},
      {"measurement": "anti-OVA-specific IgG2a subclass antibody production", "setting": "[3]; [6]", "result": "significant enhancement"}
    ]},
    {"smiles": "CCCCCCCCCCCCCCCCCCCCCC(=O)NCCc1ccncc1.Cl", "note": "[SZ209, N-[2-(4-pyridyl)ethyl]docosanamide hydrochloride]", "values": [
      {"measurement": "adjuvant activity", "setting": "[1]; [4]", "result": "have an adjuvant activity"},
      {"measurement": "adjuvant activity", "setting": "[1]; [5]", "result": "have an adjuvant activity"},
      {"measurement": "anti-OVA-specific IgG1 subclass antibody production", "setting": "[2]; [6]", "result": "tended to increase"},
      {"measurement": "anti-OVA-specific IgG2a subclass antibody production", "setting": "[3]; [6]", "result": "tended to increase"}
    ]},
    {"smiles": "CCCCCCCCCCCCNC(=O)N[C@@H](CCCNC(=N)N)C(=O)NCCCCCCCCCCCC.Cl", "note": "[SZ212, (2S)—N-dodecyl-2-(dodecylcarbamoylamino)-5-guanidino-pentanamide hydrochloride]", "values": [
      {"measurement": "adjuvant activity", "setting": "[1]; [4]", "result": "have an adjuvant activity"},
      {"measurement": "adjuvant activity", "setting": "[1]; [5]", "result": "have an adjuvant activity"},
      {"measurement": "anti-OVA-specific IgG1 subclass antibody production", "setting": "[2]; [6]", "result": "significant enhancement"},
      {"measurement": "anti-OVA-specific IgG2a subclass antibody production", "setting": "[3]; [6]", "result": "significant enhancement"}
    ]},
    {"smiles": "CCCCCCCCCCCCCCCCOC(=O)N[C@@H](CC(C)C)C(=O)NCCCCCCCC", "note": "[SZ203, hexadecyl N-[(1S)-3-methyl-1-(octylcarbamoyl)butyl]carbamate]", "values": [
      {"measurement": "adjuvant activity", "setting": "[1]; [4]", "result": "have an adjuvant activity"},
      {"measurement": "adjuvant activity", "setting": "[1]; [5]", "result": "have an adjuvant activity"},
      {"measurement": "anti-OVA-specific IgG1 subclass antibody production", "setting": "[2]; [6]", "result": "tended to increase"},
      {"measurement": "anti-OVA-specific IgG2a subclass antibody production", "setting": "[3]; [6]", "result": "Significant enhancement"}
    ]},
    {"smiles": "CCCCCCCCCCCCCCCCCC(=O)N[C@@H](CCCCNC(=N)N)C(=O)NCCCCCC.Cl", "note": "[SZ206, N-[(1S)-1-(hexylcarbamoyl)-5-guanidino-pentyl]octadecanamide hydrochloride]", "values": [
      {"measurement": "adjuvant activity", "setting": "[1]; [4]", "result": "have an adjuvant activity"},
      {"measurement": "adjuvant activity", "setting": "[1]; [5]", "result": "have an adjuvant activity"},
      {"measurement": "anti-OVA-specific IgG1 subclass antibody production", "setting": "[2]; [6]", "result": "significant enhancement"},
      {"measurement": "anti-OVA-specific IgG2a subclass antibody production", "setting": "[3]; [6]", "result": "significant enhancement"}
    ]},
    {"smiles": "CCCCCCCCCCCCCCCCOC(=O)N[C@@H](CCCCN)C(=O)NCCCCCCCCCCCC.Cl", "note": "[SZ189, hexadecyl N-[(1S)-5-amino-1-(dodecylcarbamoyl)pentyl]carbamate hydrochloride]", "values": [
      {"measurement": "adjuvant activity", "setting": "[1]; [4]", "result": "have an adjuvant activity"},
      {"measurement": "adjuvant activity", "setting": "[1]; [5]", "result": "have an adjuvant activity"},
      {"measurement": "anti-OVA-specific IgG1 subclass antibody production", "setting": "[2]; [6]", "result": "a tendency toward increase was found"},
      {"measurement": "anti-OVA-specific IgG2a subclass antibody production", "setting": "[3]; [6]", "result": "a tendency toward increase was found"}
    ]},
    {"smiles": "CCCCCCCCCCCCCCCC(=O)N[C@@H](CCCNC(=N)N)C(=O)NCCCCCCCCCCCC.Cl", "note": "[SZ111, N-[(1S)-1-(dodecylcarbamoyl)-4-guanidino-butyl]hexadecanamide hydrochloride]", "values": [
      {"measurement": "adjuvant activity", "setting": "[1]; Experimental Example 4: conclusion from IgG1/IgG2a after secondary immunization, compound dissolved in saline", "result": "has an adjuvant activity"},
      {"measurement": "adjuvant activity", "setting": "[1]; [5]", "result": "has an adjuvant activity"},
      {"measurement": "anti-OVA-specific IgG1 subclass antibody production", "setting": "[2]; [7]", "result": "significantly increased"},
      {"measurement": "anti-OVA-specific IgG2a subclass antibody production", "setting": "[3]; [7]", "result": "significantly increased"}
    ]},
    {"smiles": "CCCCCCCCCCCCCCCCCCCCCC(=O)N[C@@H](CC(C)C)C(=O)NCCCCCCCC", "note": "[SZ198, N-[(1S)-3-methyl-1-(octylcarbamoyl)butyl]docosanamide]", "values": [
      {"measurement": "adjuvant activity", "setting": "[1]; [4]", "result": "have an adjuvant activity"},
      {"measurement": "adjuvant activity", "setting": "[1]; [5]", "result": "have an adjuvant activity"},
      {"measurement": "anti-OVA-specific IgG1 subclass antibody production", "setting": "[2]; [6]", "result": "tended to increase"},
      {"measurement": "anti-OVA-specific IgG2a subclass antibody production", "setting": "[3]; [6]", "result": "tended to increase"}
    ]},
    {"smiles": "CCCCCCCCCCCCCCCCCCCCCC(=O)N[C@@H](CC(C)C)C(=O)NCCCCCCCCCCCC", "note": "[SZ197, N-[(1S)-1-(dodecylcarbamoyl)-3-methyl-butyl]docosanamide]", "values": [
      {"measurement": "adjuvant activity", "setting": "[1]; [4]", "result": "have an adjuvant activity"},
      {"measurement": "adjuvant activity", "setting": "[1]; [5]", "result": "have an adjuvant activity"},
      {"measurement": "anti-OVA-specific IgG1 subclass antibody production", "setting": "[2]; [6]", "result": "tended to increase"},
      {"measurement": "anti-OVA-specific IgG2a subclass antibody production", "setting": "[3]; [6]", "result": "tended to increase"}
    ]},
    {"smiles": "CCCCCCCCCCCCCCCCCC(=O)N[C@@H](CCCCN)C(=O)NCCCCCCCCCCCC.Cl", "note": "[SZ185, N-[(1S)-5-amino-1-(dodecylcarbamoyl)pentyl]octadecanamide hydrochloride]", "values": [
      {"measurement": "adjuvant activity", "setting": "[1]; [4]", "result": "have an adjuvant activity"},
      {"measurement": "adjuvant activity", "setting": "[1]; [5]", "result": "have an adjuvant activity"},
      {"measurement": "anti-OVA-specific IgG1 subclass antibody production", "setting": "[2]; [6]", "result": "significant enhancement"},
      {"measurement": "anti-OVA-specific IgG2a subclass antibody production", "setting": "[3]; [6]", "result": "significant enhancement"}
    ]},
    {"smiles": "CCCCCCCCCCCCCCCCCCNC(=O)N[C@@H](CCCNC(=N)N)C(=O)NCCCCCCCCCCCC.Cl", "note": "[SZ211, (2S)—N-dodecyl-5-guanidino-2-(octadecylcarbamoylamino)pentanamide hydrochloride]", "values": [
      {"measurement": "adjuvant activity", "setting": "[1]; [4]", "result": "have an adjuvant activity"},
      {"measurement": "adjuvant activity", "setting": "[1]; [5]", "result": "have an adjuvant activity"},
      {"measurement": "anti-OVA-specific IgG1 subclass antibody production", "setting": "[2]; [6]", "result": "significant enhancement"},
      {"measurement": "anti-OVA-specific IgG2a subclass antibody production", "setting": "[3]; [6]", "result": "significant enhancement"}
    ]}
  ]
}
